What follows are cell lines tested with CN1CCN(CC1)C2=CC(=C(C=C2)NC3=NC=C4C(=N3)N(C5=CC=CC=C5C(=O)N4C)C)OC [XMD8-85] + Nc1nc2[nH]cc(CCc3ccc(C(=O)N[C@@H](CCC(=O)O)C(=O)O)cc3)c2c(=O)[nH]1 [Pemetrexed] (partner 0.2 µM) (assay: relative viability (nuclei count vs DMSO), 5 days (fraction); higher = more cells survive). Conditions: first compound 0.8 µM.
Procedure, shortened: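 Nuclei were stained with Hoechst during a one-step fixation (final 0.05% Triton X-100, 1% formaldehyde, 1 ug/ml Hoechst) carried out 5 days after dosing, then counted on 4× images. The cells, lung cancer lines in 1536-well plates, had been dosed by pin tool the day after seeding with one drug alone or a fixed anchor-drug dose plus five library-drug doses (not always all listed) in √10 steps. Relative viability is the nuclei count in treated wells divided by that in vehicle wells, and each value is the median of duplicate plates.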

Cell Line | relative viability
LCLC-97TM1 | 0.211
LCLC-103H | 0.401
LK-2 | 0.282
NCI-H358 | 0.175
NCI-H522 | 1.01
NCI-H1395 | 0.854
NCI-H1563 | 0.67
NCI-H1648 | 0.826
NCI-H1793 | 0.839
NCI-H1944 | 0.638
NCI-H2170 | 0.264
NCI-H2342 | 0.891
SK-MES-1 | 1
SW 900 | 0.506

Same assay, conditions: first compound 2.53 µM

Cell Line | relative viability
201T | 0.325
A-427 | 1.1
BEN | 0.735
CAL-12T | 0.862
COR-L23 | 0.187
COR-L 105 | 0.816
ChaGo-K-1 | 0.248
EMC-BAC-2 | 0.411
EPLC-272H | 0.223
H3255 | 0.599
HARA | 0.295
HCC-15 | 0.207
HCC-44 | 0.597
HCC-78 | 0.95
HCC-366 | 0.129
HCC-827 | 0.254

Cell Line | relative viability
HOP-62 | 0.251
LC-2-ad | 0.274
LCLC-97TM1 | 0.181
LCLC-103H | 0.432
LK-2 | 0.212
NCI-H358 | 0.164
NCI-H522 | 1.08
NCI-H1395 | 0.976
NCI-H1563 | 0.778
NCI-H1648 | 0.765
NCI-H1793 | 1.18
NCI-H1944 | 0.615
NCI-H2170 | 0.269
NCI-H2342 | 0.828
SK-MES-1 | 0.9
SW 900 | 0.477

Same assay, conditions: first compound 8 µM

Cell Line | relative viability
201T | 0.288
A-427 | 0.754
BEN | 0.474
CAL-12T | 0.681
COR-L23 | 0.18
COR-L 105 | 0.58
ChaGo-K-1 | 0.232
EKVX | 0.381
EMC-BAC-2 | 0.376
EPLC-272H | 0.36
H3255 | 0.375
HARA | 0.229
HCC-15 | 0.187
HCC-44 | 0.632
HCC-78 | 0.855
HCC-366 | 0.168
HCC-827 | 0.301

Cell Line | relative viability
HOP-62 | 0.247
LC-2-ad | 0.249
LCLC-97TM1 | 0.189
LCLC-103H | 0.398
LK-2 | 0.173
NCI-H358 | 0.183
NCI-H522 | 0.825
NCI-H1395 | 0.594
NCI-H1563 | 0.631
NCI-H1648 | 0.692
NCI-H1793 | 0.645
NCI-H1944 | 0.639
NCI-H2170 | 0.286
NCI-H2342 | 0.775
SK-MES-1 | 0.44
SW 900 | 0.282
